The experiment has as its system 786-0 complex spheroids with HUVEC/MSC, growth % test/control. The experiment is described as follows: Anticancer human tumor 786-0 cell line growth inhibition [AhR].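 As to all read-outs here: compound exposure lasted seven days before the read-out.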 As to conditions: for viability, T/C: stronger effect = lower value. Summed up:
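Spheroids combined tumor cells with HUVEC endothelial cells and human MSCs as stroma. AhR antagonists were paired with standard or investigational drugs, each dosed in half-log steps down from near clinical Cmax, or from 10 microM where Cmax was unknown.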

Setting [1] is: curve of first compound, second compound 0.1 µM.
Setting [2] is: curve of first compound, second compound 0.316 µM.
Where [3] appears, read: curve of first compound, second compound 1 µM.
Where [4] appears, read: curve of first compound, second compound 3.16 µM.
Where [5] appears, read: curve of first compound, second compound 10 µM.
Where [6] appears, read: second compound 0.1 µM, first compound 0.0316 µM.
[7] abbreviates: second compound 0.1 µM, first compound 0.1 µM.
The mark [8] stands for this setting: second compound 0.1 µM, first compound 0.316 µM.
The mark [9] stands for this setting: second compound 0.1 µM, first compound 1 µM.
Where [10] appears, read: second compound 0.1 µM, first compound 3.16 µM.
Where [11] appears, read: second compound 0.1 µM, first compound 10 µM.
[12] abbreviates: second compound 0.316 µM, first compound 0.0316 µM.
[13] abbreviates: second compound 0.316 µM, first compound 0.1 µM.
The mark [14] stands for this setting: second compound 0.316 µM, first compound 0.316 µM.
Setting [15] is: second compound 0.316 µM, first compound 1 µM.
Setting [16] is: second compound 0.316 µM, first compound 3.16 µM.
The mark [17] stands for this setting: second compound 0.316 µM, first compound 10 µM.
Setting [18] is: second compound 1 µM, first compound 0.0316 µM.
[19] abbreviates: second compound 1 µM, first compound 0.1 µM.
[20] abbreviates: second compound 1 µM, first compound 0.316 µM.
[21] abbreviates: second compound 1 µM, first compound 1 µM.
Where [22] appears, read: second compound 1 µM, first compound 3.16 µM.
Where [23] appears, read: second compound 1 µM, first compound 10 µM.
[24] abbreviates: second compound 3.16 µM, first compound 0.0316 µM.
Setting [25] is: second compound 3.16 µM, first compound 0.1 µM.
Where [26] appears, read: second compound 3.16 µM, first compound 0.316 µM.
[27] abbreviates: second compound 3.16 µM, first compound 1 µM.
Where [28] appears, read: second compound 3.16 µM, first compound 3.16 µM.
[29] abbreviates: second compound 3.16 µM, first compound 10 µM.
[30] abbreviates: second compound 10 µM, first compound 0.0316 µM.
[31] abbreviates: second compound 10 µM, first compound 0.1 µM.
The mark [32] stands for this setting: second compound 10 µM, first compound 0.316 µM.
The mark [33] stands for this setting: second compound 10 µM, first compound 1 µM.
[34] abbreviates: second compound 10 µM, first compound 3.16 µM.
[35] abbreviates: second compound 10 µM, first compound 10 µM.

Structures are written as SMILES. Several values for one entry are separate records, joined by “and”; a condition that tells them apart may be missing. Equal values may be shown once.

For the molecule `CC(C)CC(NC(=O)C(Cc1ccccc1)NC(=O)c1cnccn1)B(O)O` (centres undefined) + Cc1cncc(-c2nc(NCCc3c[nH]c4ccccc34)c3ncn(C(C)C)c3n2)c1, the IC50 (as a rule, the concentration that gives 50% inhibition) under setting [1] came out at 17.8 nM; the IC50 under setting [2] stood at 18.6 nM; the IC50 under setting [3] came out at 17 nM; the IC50 under setting [4] was found to be 8.46 nM; the IC50 under setting [5] was under 0.949 nM. The viability, T/C (as a rule, the ratio of treated to control) (second compound 0.1 µM, first compound 0.000949 µM) is 136%; the viability, T/C (second compound 0.1 µM, first compound 0.003 µM) is 119%; the viability, T/C (second compound 0.1 µM, first compound 0.00949 µM) was 103%; the viability, T/C (second compound 0.1 µM, first compound 0.03 µM) was 5.33%; the viability, T/C (second compound 0.1 µM, first compound 0.0949 µM) is 0.52%; the viability, T/C (second compound 0.1 µM, first compound 0.3 µM) is 0.46%. Further, the viability, T/C is 127% (second compound 0.316 µM, first compound 0.000949 µM); 120% (second compound 0.316 µM, first compound 0.003 µM); 118% (second compound 0.316 µM, first compound 0.00949 µM); 3.15% (second compound 0.316 µM, first compound 0.03 µM); 0.85% (second compound 0.316 µM, first compound 0.0949 µM); 0.37% (second compound 0.316 µM, first compound 0.3 µM). Further, the viability, T/C is 102% (second compound 1 µM, first compound 0.000949 µM); 110% (second compound 1 µM, first compound 0.003 µM); 96.9% (second compound 1 µM, first compound 0.00949 µM); 4.16% (second compound 1 µM, first compound 0.03 µM); 0.6% (second compound 1 µM, first compound 0.0949 µM); 0.7% (second compound 1 µM, first compound 0.3 µM). Moreover, the viability, T/C (second compound 3.16 µM, first compound 0.000949 µM) is 70.7%; the viability, T/C (second compound 3.16 µM, first compound 0.003 µM) is 69.3%; the viability, T/C (second compound 3.16 µM, first compound 0.00949 µM) was 47.8%; the viability, T/C (second compound 3.16 µM, first compound 0.03 µM) is 1.63%; the viability, T/C (second compound 3.16 µM, first compound 0.0949 µM) was 0.28%; the viability, T/C (second compound 3.16 µM, first compound 0.3 µM) was 0.43%. For the same molecule, the viability, T/C runs as follows: (second compound 10 µM, first compound 0.000949 µM) 10.2%; (second compound 10 µM, first compound 0.003 µM) 16%; (second compound 10 µM, first compound 0.00949 µM) 2.59%; (second compound 10 µM, first compound 0.03 µM) 0.18%; (second compound 10 µM, first compound 0.0949 µM) 0.17%; (second compound 10 µM, first compound 0.3 µM) 0.24%.

Turning to `COc1cc(Nc2ncc3c(n2)-c2ccc(Cl)cc2C(c2c(F)cccc2OC)=NC3)ccc1C(=O)O`, the viability, T/C (compound 0.0316 µM) is 94.7% and 108% and 91.5%; the viability, T/C (compound 0.1 µM) was 96% and 110% and 93.9%; the viability, T/C (compound 0.316 µM) is 98% and 122% and 107%; the viability, T/C (compound 1 µM) was 78.9% and 92.7% and 79.7%; the viability, T/C (compound 3.16 µM) is 50.9% and 63.2% and 48.5%; the viability, T/C (compound 10 µM) was 27.6% and 35% and 28.7%. Further, the concentration for half-maximal inhibition (IC50) (curve of compound) was 3170 nM and 5260 nM and 2870 nM.

In the case of `CCc1c2c(nc3ccc(O)cc13)-c1cc3c(c(=O)n1C2)COC(=O)[C@]3(O)CC`, the viability, T/C reads like this: (compound 0.000949 µM) 86.2% and 105% and 92.8%; (compound 0.003 µM) 71.8% and 98.8% and 87.3%; (compound 0.00949 µM) 17.6% and 23.2% and 15.3%; (compound 0.03 µM) 5.33% and 8.68% and 6.03%; (compound 0.0949 µM) 2.54% and 5.4% and 3.46%; (compound 0.3 µM) 2.09% and 4.14% and 2.23%. In addition, the concentration for half-maximal inhibition (IC50) (curve of compound) was 4.77 nM and 6.31 nM and 5.45 nM.

In the case of `COc1ccc([C@@H](O)c2cc(-c3ncnc4cc(N5CCOCC5)ccc34)c(F)cc2Cl)nn1` + CC(CO)NC(=O)c1cc(-c2ccc(Cl)cc2)nn(-c2cnn(C)c2)c1=O, the IC50 by setting is: under setting [1], over 10000 nM; under setting [2], over 10000 nM; under setting [3], over 10000 nM; under setting [4], over 10000 nM; under setting [5], over 10000 nM. The viability, T/C was 99.5% under setting [6]; 109% under setting [7]; 111% under setting [8]; 115% under setting [9]; 117% under setting [10]; 85.2% under setting [11]. Also, the viability, T/C under setting [12] is 102%; the viability, T/C under setting [13] is 107%; the viability, T/C under setting [14] is 118%; the viability, T/C under setting [15] is 106%; the viability, T/C under setting [16] is 108%; the viability, T/C under setting [17] was 91.2%. Further, the viability, T/C is, setting by setting: under setting [18], 110%; under setting [19], 114%; under setting [20], 110%; under setting [21], 113%; under setting [22], 114%; under setting [23], 91.6%. Besides, the viability, T/C runs as follows: under setting [24], 102%; under setting [25], 112%; under setting [26], 114%; under setting [27], 111%; under setting [28], 107%; under setting [29], 83.2%. The viability, T/C under setting [30] is 117%; the viability, T/C under setting [31] is 122%; the viability, T/C under setting [32] was 115%; the viability, T/C under setting [33] was 115%; the viability, T/C under setting [34] is 100%; the viability, T/C under setting [35] is 78%.

Consider `Nc1ccccc1NC(=O)c1ccc(CNC(=O)OCc2cccnc2)cc1` + Cc1cncc(-c2nc(NCCc3c[nH]c4ccccc34)c3ncn(C(C)C)c3n2)c1, for which the IC50 by setting is: under setting [1], 7200 nM; under setting [2], 7820 nM; under setting [3], 6750 nM; under setting [4], 4610 nM; under setting [5], under 31.6 nM. The viability, T/C is 119% under setting [6]; 114% under setting [7]; 125% under setting [8]; 115% under setting [9]; 106% under setting [10]; 27.8% under setting [11]. In addition, the viability, T/C runs as follows: under setting [12], 118%; under setting [13], 114%; under setting [14], 128%; under setting [15], 126%; under setting [16], 115%; under setting [17], 32%. For the same molecule, the viability, T/C was 106% under setting [18]; 113% under setting [19]; 121% under setting [20]; 108% under setting [21]; 97% under setting [22]; 25.6% under setting [23]. Further, the viability, T/C under setting [24] was 68.1%; the viability, T/C under setting [25] is 71.4%; the viability, T/C under setting [26] is 65.4%; the viability, T/C under setting [27] was 60.5%; the viability, T/C under setting [28] is 69.2%; the viability, T/C under setting [29] is 15.2%. The viability, T/C was 8.31% under setting [30]; 9.06% under setting [31]; 3.52% under setting [32]; 0.75% under setting [33]; 0.39% under setting [34]; 0.77% under setting [35].

For the origin of these results see PubChem BioAssay AID1919003 (Molecular Pharmacology Branch, DTP, NCI, 2023).
